According to the NIST ThermoML archive (doi:10.1016/j.jct.2005.10.019):

How the values were obtained:
[1] = excess molar enthalpy (molar enthalpy of mixing); xn = mol fraction of the nth substance listed; conditions: 298.15 K, 101 kPa, Liquid
[2] = 298.15 K; 101.33 kPa; Liquid

C[C@H](N)c1ccccc1 [(S)-(-)-αmethylbenzylamine] + C[C@@H](N)c1ccccc1
[1]
Conditions | excess molar enthalpy [kJ/mol]
x1 = 0.0173 | 0.000616
x1 = 0.03401 | 0.00121
x1 = 0.05015 | 0.00175
x1 = 0.06577 | 0.00225
x1 = 0.08089 | 0.00268
x1 = 0.09552 | 0.00313
x1 = 0.1097 | 0.00355
x1 = 0.1234 | 0.00393
x1 = 0.1368 | 0.00428
x1 = 0.1408 | 0.00448
x1 = 0.1497 | 0.00462
x1 = 0.1622 | 0.00497
x1 = 0.1744 | 0.00528
x1 = 0.1862 | 0.00554
x1 = 0.2469 | 0.00682
x1 = 0.3297 | 0.00815
x1 = 0.384 | 0.00869
x1 = 0.4161 | 0.0089
x1 = 0.4539 | 0.00903
x1 = 0.555 | 0.00903
x1 = 0.6244 | 0.00868
x1 = 0.7138 | 0.00757
x1 = 0.8027 | 0.00551
x1 = 0.815 | 0.00525
x1 = 0.841 | 0.00462
x1 = 0.8546 | 0.00427
x1 = 0.8686 | 0.00391
x1 = 0.8831 | 0.00351
x1 = 0.8981 | 0.0031
x1 = 0.9136 | 0.00264
x1 = 0.9297 | 0.0022
x1 = 0.9463 | 0.00171
x1 = 0.9636 | 0.00114
x1 = 0.9814 | 0.000486

C[C@H](O)c1ccccc1 [(S)-(-)-1-phenylethanol] + C[C@@H](O)c1ccccc1
[1]
Conditions | excess molar enthalpy [kJ/mol]
x1 = 0.07558 | 0.00316
x1 = 0.09137 | 0.00379
x1 = 0.1405 | 0.00532
x1 = 0.1675 | 0.00626
x1 = 0.197 | 0.00701
x1 = 0.2318 | 0.0077
x1 = 0.2464 | 0.00818
x1 = 0.2869 | 0.00892
x1 = 0.2902 | 0.00904
x1 = 0.3291 | 0.00964
x1 = 0.3346 | 0.00964
x1 = 0.364 | 0.0101
x1 = 0.3763 | 0.0101
x1 = 0.3954 | 0.0103
x1 = 0.4131 | 0.0103
x1 = 0.4239 | 0.0105
x1 = 0.4458 | 0.0105
x1 = 0.4498 | 0.0106
x1 = 0.4751 | 0.0105
x1 = 0.4753 | 0.0104
x1 = 0.497 | 0.0106
x1 = 0.5014 | 0.0106
x1 = 0.5208 | 0.0106
x1 = 0.5252 | 0.0105
x1 = 0.5469 | 0.0105
x1 = 0.547 | 0.0106
x1 = 0.5668 | 0.0105
x1 = 0.576 | 0.0105
x1 = 0.5993 | 0.0105
x1 = 0.6083 | 0.0103
x1 = 0.6357 | 0.0101
x1 = 0.6443 | 0.00996
x1 = 0.6768 | 0.00959
x1 = 0.6849 | 0.00949
x1 = 0.7235 | 0.00897
x1 = 0.731 | 0.00874
x1 = 0.7773 | 0.00796
x1 = 0.7837 | 0.00766
x1 = 0.8396 | 0.00601
x1 = 0.8446 | 0.00622
x1 = 0.9128 | 0.00359
x1 = 0.9158 | 0.0035

C[C@H](NCc1ccccc1)c1ccccc1 [(S)-N-benzyl-1-phenylethylamine] + C[C@@H](NCc1ccccc1)c1ccccc1
[1]
Conditions | excess molar enthalpy [kJ/mol]
x1 = 0.05697 | -0.000895
x1 = 0.09481 | -0.00138
x1 = 0.1905 | -0.00255
x1 = 0.2961 | -0.00344
x1 = 0.4009 | -0.00402
x1 = 0.5331 | -0.00426
x1 = 0.5712 | -0.00421
x1 = 0.6151 | -0.00402
x1 = 0.7271 | -0.00348
x1 = 0.7998 | -0.00287
x1 = 0.8805 | -0.00184
x1 = 0.9576 | -0.000777

C[C@@H]1COC(=O)O1 [(R)-4-methyl-1,3-dioxolan-2-one]
Conditions | mass density [kg/m3]
[2] | 1199.4

C[C@H](NCc1ccccc1)c1ccccc1 [(S)-N-benzyl-1-phenylethylamine]
Conditions | mass density [kg/m3]
[2] | 1007.9

ClC[C@H]1CO1 [(2R)-(chloromethyl)-oxirane]
Conditions | mass density [kg/m3]
[2] | 1093.3

CCCC(=O)OC[C@H]1CO1 [R(-)-2,3-epoxypropyl butanoate]
Conditions | mass density [kg/m3]
[2] | 1036.3

COC(=O)[C@@H](C)CO [(2S)-3-hydroxy-2-methyl-propanoic acid methyl ester]
Conditions | mass density [kg/m3]
[2] | 1069.6

ClC[C@@H]1CO1 [(2S)-chloromethyl-oxirane]
Conditions | mass density [kg/m3]
[2] | 1093.5

CCCC(=O)OC[C@@H]1CO1 [S-(-)-glycidyl butyrate]
Conditions | mass density [kg/m3]
[2] | 1029.7

C[C@H]1COC(=O)O1 [(S)-4-methyl-1,3-dioxolan-2-one]
Conditions | mass density [kg/m3]
[2] | 1199.5

COC(=O)[C@H](C)CO [(2R)-3-hydroxy-2-methyl-propanoic acid methyl ester] + COC(=O)[C@@H](C)CO
[1]
Conditions | excess molar enthalpy [kJ/mol]
x2 = 0.08854 | 0.0031
x2 = 0.08893 | 0.00329
x2 = 0.08959 | 0.00301
x2 = 0.1627 | 0.00547
x2 = 0.1633 | 0.00532
x2 = 0.1645 | 0.00545
x2 = 0.2257 | 0.00717
x2 = 0.2265 | 0.00704
x2 = 0.2279 | 0.00718
x2 = 0.2798 | 0.00831
x2 = 0.2808 | 0.00828
x2 = 0.2825 | 0.00839
x2 = 0.3269 | 0.00912
x2 = 0.328 | 0.00907
x2 = 0.3298 | 0.00923
x2 = 0.3682 | 0.00969
x2 = 0.3693 | 0.00965
x2 = 0.3713 | 0.00977
x2 = 0.4048 | 0.0101
x2 = 0.4059 | 0.01
x2 = 0.4079 | 0.0101
x2 = 0.4373 | 0.0103
x2 = 0.4385 | 0.0103
x2 = 0.4405 | 0.0104
x2 = 0.4665 | 0.0105
x2 = 0.4677 | 0.0104
x2 = 0.4697 | 0.0105
x2 = 0.4928 | 0.0105
x2 = 0.4939 | 0.0105
x2 = 0.496 | 0.0105
x2 = 0.5037 | 0.0106
x2 = 0.5048 | 0.0106
x2 = 0.53 | 0.0105
x2 = 0.5311 | 0.0106
x2 = 0.5592 | 0.0104
x2 = 0.5602 | 0.0104
x2 = 0.5918 | 0.0101
x2 = 0.5928 | 0.0102
x2 = 0.6285 | 0.00973
x2 = 0.6294 | 0.00976
x2 = 0.6699 | 0.0091
x2 = 0.6709 | 0.00914
x2 = 0.7173 | 0.00821
x2 = 0.7182 | 0.00827
x2 = 0.7718 | 0.00697
x2 = 0.7726 | 0.00704
x2 = 0.8354 | 0.00524
x2 = 0.836 | 0.00527
x2 = 0.9103 | 0.00294
x2 = 0.9107 | 0.00294

C[C@H](O)c1ccccc1 [(S)-(-)-1-phenylethanol]
Conditions | mass density [kg/m3]
[2] | 1012.3

C[C@@H](O)c1ccccc1 [(R)-(+)-1-phenylethanol]
Conditions | mass density [kg/m3]
[2] | 1012.4
